The numbers were not newly measured in patent US7943796B2, “Lubricating oil additive and lubricating oil composition containing same” (Chevron Oronise Company LLC, priority 2008, dated 2011), which cites them from elsewhere.

The test system of the data set is estrogen-inducible strain of yeast. The settings on record: among alkylphenols, compared with 17β-estradiol.

Consider `CC(C)(C)CC(C)(C)c1ccc(O)cc1` [4-tert-octylphenol, 4-(1,1,3,3-Tetramethyl-butyl)-phenol], for which the estrogenic activity entry is recorded as “highest activity”.
